For data set [1], the system named is HBV AD38 viral particles in HepG2 cell line overexpressing NTCP. Description: HBV DNA Quantification Assay. The class given is cell-based. The following applies: Hepatitis B virus, HepG2, 120 h, HBV-infected HepG2-NTCP cells, 5 days incubation, HBV DNA in culture supernatant (QuantiGene 2.0); geometric mean of a minimum of four determinations. On the procedure:
HBV DNA Quantification Assay
A HepG2 cell line overexpressing the HBV virus attachment receptor sodium-taurocholate cotransporting polypeptide (NTCP) was grown to confluency in DMEM growth medium, Dulbecco's Modified Eagle Medium without sodium pyruvate (Life Technologies, Rockville, Md.) supplemented with 10% FBS (Thermo Scientific, Waltham, Md.), 1% penicillin/streptomycin (Life Technologies, Rockville, Md.) and 2 mM L-glutamine (Life Technologies, Rockville, Md.) in T175 flasks. Cells were infected with HBV AD38 viral particles (Texcell, Frederick, USA) at 4000 genome equivalents per cell. After allowing viral infection to take place for 4 days, the infected cells were harvested from the flasks by trypsinization, washed twice with OptiMEM (Life Technologies, Rockville, Md.) and re-suspended in DMEM containing 2% FBS and 1% DMSO at a density of 0.25E6 cells/ml. Infected cells were seeded on 384 well collagen coated plates (Greiner, Austria) at a density of 20,000 cells/well containing serially diluted compounds of the present disclosure or DMSO (0.5%) in a final volume of 80 μl. The assay plates were incubated for a period of 5 days and the antiviral activity of the test compounds were assayed by detecting the presence of HBV DNA in the culture supernatant using the QuantiGene™ 2.0 nucleic acid quantification kit (Affymetrix, Santa Clara, Calif.).
The culture supernatant was harvested and treated with lysis buffer containing Proteinase K (Affymetrix, Santa Clara, Calif.). The supernatant was incubated with HBV viral DNA specific probes (Affymetrix, Santa Clara, Calif.) for 30 minutes at 55° C. This was followed by addition of 0.2M NaOH for 30 minutes at room temperature to denature the DNA, followed by addition of Neutralization buffer (Affymetrix, Santa Clara, Calif.). The resulting lysed and neutralized supernatant was then added to QuantiGene™ 2.0 384 well plates coated with capture oligonucleotides and incubated overnight at 55° C. The HBV specific probe set consists of Capture Extender oligonucleotides (CE's) and blocking probes. Following the overnight incubation, the wells were incubated for one hour sequentially with a Pre-Amplifier, Amplifier and Labeled probes conjugated to alkaline phosphatase with a wash step between incubations. After the final wash step, the alkaline phosphatase substrate (Luminol APS5) was added and the resulting luminescence signal was read in an EnVision Multilabel Plate Reader (PerkinElmer, Santa Clara, Calif.). The EC50 values were calculated from the fit of the dose—response curves to a four-parameter equation. All EC50 values represent geometric mean values of a minimum of four determinations.

Data set [2] in a line: Hepatic Stability Assay (in vitro half-life method). Type of data set: in vitro ADME. More on the design: dose or concentration left out as unconfirmed. Conditions: pooled cryopreserved hepatocytes, 37° C., 1×10^6 cells/mL, 0-6 hours, LC-MS/MS, 39.5 hours is the maximum detectable half life, read-out: t½ (converted). A digest of the protocol: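 Pooled cryopreserved hepatocytes (1×10^6 cells/mL) incubated with compound at […] test concentration, 37° C.; samples at 0, 1, 3 and 6 h quantified by LC-MS/MS. Half-life from rate of compound disappearance, scaled to predicted hepatic clearance via well-stirred model.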

Broadly, the EC50 is the concentration needed to bring the measured effect to its halfway point.

`Cc1c(C(=O)C(=O)NC2(c3c[nH]nn3)CC(F)(F)C2)c2n(c1C(=O)Nc1ccc(F)c(F)c1)CCC2` [Example 31, 7-(2-((3,3-difluoro-1-(1H-1,2,3-triazol-4-yl)cyclobutyl)amino)-2-oxoacetyl)-N-(3,4-difluorophenyl)-6-methyl-2,3-dihydro-1H-pyrrolizine-5-carboxamide] gave an EC50 in data set [1] of 3.2 nM. Further, the half-life in data set [2] is 8.6 h.
The corresponding values for `CNC(=O)C1(NC(=O)C(=O)c2c(C)c(C(=O)Nc3cc(F)c(F)c(F)c3)n3c2CCC3)CC(F)(F)C1` [Example 36, 7-(2-((3,3-difluoro-1-(methylcarbamoyl)cyclobutyl)amino)-2-oxoacetyl)-6-methyl-N-(3,4,5-trifluorophenyl)-2,3-dihydro-1H-pyrrolizine-5-carboxamide] are 24 nM and 26.5 h.
Molecule `Cc1c(C(=O)C(=O)NC2(c3c[nH]nn3)CC(F)(F)C2)c2n(c1C(=O)Nc1ccc(F)c(C#N)c1)[C@@H]1C[C@@H]1C2` [Example 41, (1aR,6aR)—N-(3-cyano-4-fluorophenyl)-5-(2-((3,3-difluoro-1-(1H-1,2,3-triazol-4-yl)cyclobutyl)amino)-2-oxoacetyl)-4-methyl-1,1a,6,6a-tetrahydrocyclopropa[b]pyrrolizine-3-carboxamide] registered an EC50 in data set [1] of 7.5 nM. The half-life in data set [2] is 4.9 h.
For the molecule `Cc1c(C(=O)C(=O)NC2(c3ccccc3)CC2)c2n(c1C(=O)Nc1ccc(F)c(Cl)c1)CCC2` [Example 66, N-(3-chloro-4-fluorophenyl)-6-methyl-7-(2-oxo-2-((1-phenylcyclopropyl)amino)acetyl)-2,3-dihydro-1H-pyrrolizine-5-carboxamide], the EC50 in data set [1] is 6.5 nM. Also, the half-life in data set [2] was 1.4 h.
Molecule `Cc1c(C(=O)C(=O)NC2(c3c[nH]nn3)CC(F)(F)C2)c2n(c1C(=O)Nc1ccc(F)c(Cl)c1)[C@@H]1C[C@@H]1C2` [Example 39, (1aR,6aR)—N-(3-chloro-4-fluorophenyl)-5-(2-((3,3-difluoro-1-(1H-1,2,3-triazol-4-yl)cyclobutyl)amino)-2-oxoacetyl)-4-methyl-1,1a,6,6a-tetrahydrocyclopropa[b]pyrrolizine-3-carboxamide] came in with an EC50 in data set [1] of 2.1 nM. Moreover, in data set [2], the half-life was 4.2 h.
Regarding `Cc1c(C(=O)C(=O)NC2(c3c[nH]nn3)CC(F)(F)C2)c2n(c1C(=O)Nc1ccc(F)cc1)CCC2` [Example 32, 7-(2-((3,3-difluoro-1-(1H-1,2,3-triazol-4-yl)cyclobutyl)amino)-2-oxoacetyl)-N-(4-fluorophenyl)-6-methyl-2,3-dihydro-1H-pyrrolizine-5-carboxamide], the EC50 in data set [1] came to 8.5 nM. In data set [2], the half-life is 8.8 h.
`CNC(=O)C1(NC(=O)C(=O)c2c(C)c(C(=O)Nc3cc(F)c(F)c(F)c3)n3c2C[C@H]2C[C@H]23)CC(F)(F)C1` [Example 38, (1aR,6aR)-5-(2-((3,3-difluoro-1-(methylcarbamoyl)cyclobutyl)amino)-2-oxoacetyl)-4-methyl-N-(3,4,5-trifluorophenyl)-1,1a,6,6a-tetrahydrocyclopropa[b]pyrrolizine-3-carboxamide] returned an EC50 in data set [1] of 13 nM. The half-life in data set [2] is 13.8 h.
Turning to `Cc1c(C(=O)C(=O)NC2(c3nncs3)CC2)c2n(c1C(=O)Nc1ccc(F)c(Cl)c1)CCC2` [Example 12, 7-(2-((1-(1,3,4-thiadiazol-2-yl)cyclopropyl)amino)-2-oxoacetyl)-N-(3-chloro-4-fluorophenyl)-6-methyl-2,3-dihydro-1H-pyrrolizine-5-carboxamide], in data set [1], it took 5 nM to reach a half-maximal effect (EC50). Moreover, the half-life in data set [2] was 6.4 h.
Molecule `Cc1c(C(=O)C(=O)NC2(C(=O)N3CC4(COC4)C3)CC(F)(F)C2)c2n(c1C(=O)Nc1ccc(F)c(Cl)c1)CCC2` [Example 27, N-(3-chloro-4-fluorophenyl)-7-(2-((3,3-difluoro-1-(2-oxa-6-azaspiro[3.3]heptane-6-carbonyl)cyclobutyl)amino)-2-oxoacetyl)-6-methyl-2,3-dihydro-1H-pyrrolizine-5-carboxamide] yielded an EC50 in data set [1] of 32.3 nM. Further, the half-life in data set [2] was 0.9 h.
The corresponding values for `Cc1c(C(=O)C(=O)NC2(c3c[nH]nn3)CC2)c2n(c1C(=O)Nc1cc(F)cc(C#N)c1)CCC2` [Example 126, 7-(2-((1-(1H-1,2,3-triazol-4-yl)cyclopropyl)amino)-2-oxoacetyl)-N-(3-cyano-5-fluorophenyl)-6-methyl-2,3-dihydro-1H-pyrrolizine-5-carboxamide] are 166 nM and 10.7 h.
On to `CNC(=O)C(C)(C)NC(=O)C(=O)c1c(C)c(C(=O)Nc2cc(F)c(F)c(F)c2)n2c1CCC2` [Example 83, 6-methyl-7-(2-((2-methyl-1-(methylamino)-1-oxopropan-2-yl)amino)-2-oxoacetyl)-N-(3,4,5-trifluorophenyl)-2,3-dihydro-1H-pyrrolizine-5-carboxamide], for which, in data set [1], the EC50 is 199 nM. In data set [2], the half-life is 19.2 h.
Turning to `Cc1c(C(=O)C(=O)NC2(C(=O)N3CCC34COC4)CC(F)(F)C2)c2n(c1C(=O)Nc1ccc(F)c(Cl)c1)CCC2` [Example 11, N-(3-chloro-4-fluorophenyl)-7-(2-((3,3-difluoro-1-(6-oxa-1-azaspiro[3.3]heptane-1-carbonyl)cyclobutyl)amino)-2-oxoacetyl)-6-methyl-2,3-dihydro-1H-pyrrolizine-5-carboxamide], in data set [1], a half-maximal effect (EC50) was put at 7.7 nM. The half-life in data set [2] was 0.7 h.
In the case of `Cc1c(C(=O)C(=O)NC2(C)CS(=O)(=O)C2)c2n(c1C(=O)Nc1ccc(F)c(Cl)c1)CCC2` [Example 21, N-(3-chloro-4-fluorophenyl)-6-methyl-7-(2-((3-methyl-1,1-dioxidothietan-3-yl)amino)-2-oxoacetyl)-2,3-dihydro-1H-pyrrolizine-5-carboxamide], it took 20.1 nM to reach a half-maximal effect in data set [1] (EC50). Moreover, in data set [2], the half-life is 17.1 h.
In data set [1], `Cc1c(C(=O)C(=O)NC2(c3c[nH]nn3)CC(F)(F)C2)c2n(c1C(=O)Nc1cc(F)c(F)c(F)c1)CCC2` [Example 53, 7-(2-((3,3-difluoro-1-(1H-1,2,3-triazol-4-yl)cyclobutyl)amino)-2-oxoacetyl)-6-methyl-N-(3,4,5-trifluorophenyl)-2,3-dihydro-1H-pyrrolizine-5-carboxamide] yielded an EC50 of 3.2 nM. In addition, in data set [2], the half-life is 10.8 h.
In turn, `Cc1c(C(=O)C(=O)NC2(c3c[nH]nn3)CC2)c2n(c1C(=O)Nc1ccc(F)c(Cl)c1)CCC2` [Example 6, 7-(2-((1-(1H-1,2,3-Triazol-4-yl)cyclopropyl)amino)-2-oxoacetyl)-N-(3-chloro-4-fluorophenyl)-6-methyl-2,3-dihydro-1H-pyrrolizine-5-carboxamide] registered an EC50 in data set [1] of 11.1 nM. In addition, the half-life in data set [2] is 8.2 h.
With `Cc1c(C(=O)C(=O)NC2(c3c[nH]nn3)CC(F)(F)C2)c2n(c1C(=O)Nc1ccc(F)c(F)c1)[C@@H]1C[C@@H]1C2` [Example 42, (1aR,6aR)-5-(2-((3,3-difluoro-1-(1H-1,2,3-triazol-4-yl)cyclobutyl)amino)-2-oxoacetyl)-N-(3,4-difluorophenyl)-4-methyl-1,1a,6,6a-tetrahydrocyclopropa[b]pyrrolizine-3-carboxamide], the EC50 in data set [1] came to 2.1 nM. Besides, the half-life in data set [2] is 3.5 h.
Turning to `Cc1c(C(=O)C(=O)NC2(c3c[nH]nn3)COC2)c2n(c1C(=O)Nc1ccc(F)c(Cl)c1)CCC2` [Example 88, 7-(2-((3-(1H-1,2,3-triazol-4-yl)oxetan-3-yl)amino)-2-oxoacetyl)-N-(3-chloro-4-fluorophenyl)-6-methyl-2,3-dihydro-1H-pyrrolizine-5-carboxamide], the EC50 in data set [1] came out at 8.7 nM. Also, the half-life in data set [2] is 9.9 h.
Regarding `Cc1c(C(=O)C(=O)NC2(c3c[nH]nn3)CC2)c2n(c1C(=O)Nc1cccc(C#N)c1)CCC2` [Example 75, 7-(2-((1-(1H-1,2,3-triazol-4-yl)cyclopropyl)amino)-2-oxoacetyl)-N-(3-cyanophenyl)-6-methyl-2,3-dihydro-1H-pyrrolizine-5-carboxamide], the concentration for a half-maximal effect (EC50) in data set [1] was determined as 106 nM. In data set [2], the half-life is 17.3 h.

The values above are taken from patent US10328053B2 (Gilead Sciences, Inc., priority 2016, dated 2019).
